One data set addresses T1, CYP2A6 (Homo sapiens, UniProt P11509).
T1 sequence (P11509 1-494): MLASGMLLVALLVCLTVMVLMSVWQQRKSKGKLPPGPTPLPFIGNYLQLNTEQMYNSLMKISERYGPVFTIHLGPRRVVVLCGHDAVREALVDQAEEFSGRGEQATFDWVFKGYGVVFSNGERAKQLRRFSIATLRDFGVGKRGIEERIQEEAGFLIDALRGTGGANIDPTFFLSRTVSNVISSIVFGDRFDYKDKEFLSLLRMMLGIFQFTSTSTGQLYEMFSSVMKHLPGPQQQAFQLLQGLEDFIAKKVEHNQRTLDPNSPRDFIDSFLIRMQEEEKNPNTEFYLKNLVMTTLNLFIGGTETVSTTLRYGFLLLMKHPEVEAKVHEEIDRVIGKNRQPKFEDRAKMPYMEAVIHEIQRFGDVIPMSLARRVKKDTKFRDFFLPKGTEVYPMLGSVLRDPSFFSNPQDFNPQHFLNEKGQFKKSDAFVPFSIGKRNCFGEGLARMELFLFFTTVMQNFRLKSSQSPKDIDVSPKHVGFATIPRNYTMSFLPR
The data set can be described thus: CYP inhibition in vitro. In kind it is in vitro ADME.

A further data set addresses CYP2C19 (Homo sapiens, UniProt P33261). The data set can be described thus: CYP inhibition in vitro. In kind it is in vitro ADME.
The nature of data set [1]: Phase 1 Part 1 (SAD) safety and tolerability. In kind it is in vivo, human. The conditions noted are these: healthy subjects. The method, then: The primary outcome measure of Part 1 and Part 2 will be: (1) measurement of the safety and tolerability by subject incidence of graded treatment-emergent adverse events (TEAEs), laboratory abnormalities, and changes to vital signs, ECGs, cardiac telemetry, and physical examination findings.
Four sequential SAD cohorts were dosed.
For each cohort of Part 1, the daily dose of study drug was administered as a single dose (1 time daily or QD). In Part 1 of the study, following a screening period to determine eligibility, subjects in each cohort entered the Phase 1 clinical research unit (CRU) on the afternoon of Day −1. Study eligibility was re-confirmed upon admission to the CRU, and subjects remained in the CRU overnight prior to dosing on Day 1. Following Day 1, subjects remained in the CRU for an additional 72 hours post-dose (i.e., discharge on Day 4) to enable collection of plasma and urine for PK samples and other study assessments. Subjects were discharged from the CRU following plasma PK sample collection on Day 4 and returned on Day 16 (+2 days) for a final follow-up visit.

The next data set relates to HO bone formation. The data set can be described thus: mouse model of HO bone formation. In kind it is in vivo. The conditions noted are these: dosing for 21 days.
The nature of data set [2]: plasma protein binding, monkey. In kind it is in vitro ADME. The following applies: in vitro.
Another data set deals with CYP2E1 (Homo sapiens, UniProt P05181). Briefly: CYP inhibition in vitro. In kind it is in vitro ADME.
Sequence of CYP2E1 (P05181 whole entry): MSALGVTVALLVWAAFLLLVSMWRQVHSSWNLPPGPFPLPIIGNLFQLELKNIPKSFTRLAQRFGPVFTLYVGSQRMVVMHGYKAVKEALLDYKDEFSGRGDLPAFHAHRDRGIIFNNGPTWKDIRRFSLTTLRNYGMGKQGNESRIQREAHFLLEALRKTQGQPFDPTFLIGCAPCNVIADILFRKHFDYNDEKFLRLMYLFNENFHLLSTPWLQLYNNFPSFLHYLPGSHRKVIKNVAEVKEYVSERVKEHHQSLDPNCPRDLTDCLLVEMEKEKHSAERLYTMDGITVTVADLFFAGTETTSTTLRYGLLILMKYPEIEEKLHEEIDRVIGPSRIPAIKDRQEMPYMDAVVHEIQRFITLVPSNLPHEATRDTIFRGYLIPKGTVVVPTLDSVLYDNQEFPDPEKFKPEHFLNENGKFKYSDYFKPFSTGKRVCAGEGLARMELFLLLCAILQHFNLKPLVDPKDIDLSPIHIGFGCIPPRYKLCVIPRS
Another data set has as its target T2, ALK2(R206H) (Homo sapiens, UniProt Q04771, R206H).
T2 sequence (Q04771 21-509 R206H): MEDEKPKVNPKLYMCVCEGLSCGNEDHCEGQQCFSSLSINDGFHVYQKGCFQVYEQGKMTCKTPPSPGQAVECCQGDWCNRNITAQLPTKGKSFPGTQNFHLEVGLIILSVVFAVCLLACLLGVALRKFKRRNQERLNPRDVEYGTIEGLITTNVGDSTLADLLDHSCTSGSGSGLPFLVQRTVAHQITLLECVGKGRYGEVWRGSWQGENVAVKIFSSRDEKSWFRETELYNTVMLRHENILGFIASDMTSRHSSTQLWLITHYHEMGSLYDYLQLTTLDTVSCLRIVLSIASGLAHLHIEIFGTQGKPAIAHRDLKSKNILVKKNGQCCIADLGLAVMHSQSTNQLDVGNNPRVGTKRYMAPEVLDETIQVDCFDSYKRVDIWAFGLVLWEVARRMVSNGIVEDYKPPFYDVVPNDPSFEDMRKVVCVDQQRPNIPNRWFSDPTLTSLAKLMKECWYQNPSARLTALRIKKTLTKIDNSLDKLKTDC
Briefly: ALK2(R206H) functional assays. In kind it is biochemical. The conditions noted are these: several functional assays; read-out: ALK2(R206H) activity potency (IC50).

For another data set, the system named is CYP3A. Briefly: CYP inhibition in vitro. In kind it is in vitro ADME.
For another data set, the target named is T3, cytochrome P450 (CYP)1A2 (Homo sapiens, UniProt P05177).
T3 sequence (P05177 1-516): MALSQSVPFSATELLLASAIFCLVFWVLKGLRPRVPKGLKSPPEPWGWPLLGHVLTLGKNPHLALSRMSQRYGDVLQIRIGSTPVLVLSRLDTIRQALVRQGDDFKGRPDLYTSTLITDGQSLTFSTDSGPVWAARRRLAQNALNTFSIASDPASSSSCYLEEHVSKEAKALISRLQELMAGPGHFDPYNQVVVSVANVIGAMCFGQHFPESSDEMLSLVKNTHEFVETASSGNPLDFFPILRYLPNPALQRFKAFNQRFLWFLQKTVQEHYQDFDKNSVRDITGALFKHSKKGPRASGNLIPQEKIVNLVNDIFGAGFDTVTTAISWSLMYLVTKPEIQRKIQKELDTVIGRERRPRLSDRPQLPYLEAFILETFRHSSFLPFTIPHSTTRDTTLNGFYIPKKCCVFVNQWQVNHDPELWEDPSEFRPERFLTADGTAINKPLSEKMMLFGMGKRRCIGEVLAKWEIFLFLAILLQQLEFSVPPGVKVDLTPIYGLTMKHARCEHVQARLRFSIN
Briefly: CYP inhibition in vitro. In kind it is in vitro ADME.

Experimental findings from patent publication US20240408096A1, “DOSING REGIMENS FOR ORAL ALK2 KINASE INHIBITORS” (BioCryst Pharmaceuticals, Inc., priority 2020, published 2024) are described below.

As a reminder, the IC50 is the midpoint of a concentration-inhibition curve.

Sequence of CYP2C19 (P33261 whole entry): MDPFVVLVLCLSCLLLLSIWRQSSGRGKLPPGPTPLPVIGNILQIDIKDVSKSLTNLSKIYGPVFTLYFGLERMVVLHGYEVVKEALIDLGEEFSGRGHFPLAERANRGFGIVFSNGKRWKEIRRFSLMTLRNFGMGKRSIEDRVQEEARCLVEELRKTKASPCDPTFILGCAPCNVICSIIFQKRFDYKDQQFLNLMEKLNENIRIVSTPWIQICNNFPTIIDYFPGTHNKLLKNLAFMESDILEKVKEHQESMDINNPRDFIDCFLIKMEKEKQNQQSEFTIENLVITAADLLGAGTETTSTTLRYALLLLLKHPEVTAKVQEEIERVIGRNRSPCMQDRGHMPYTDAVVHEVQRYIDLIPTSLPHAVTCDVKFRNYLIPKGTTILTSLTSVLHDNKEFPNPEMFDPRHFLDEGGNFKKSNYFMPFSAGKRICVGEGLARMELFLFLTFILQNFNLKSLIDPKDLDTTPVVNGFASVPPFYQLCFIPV

On to `COc1cc(-n2cnc(Nc3nc(N4CCC[C@H]4C(N)=O)nc4sccc34)c2)cc(OC)c1OC.O=C(O)CC(O)(CC(=O)O)C(=O)O` [Compound A], for which the CYP2A6 inhibition entry at CYP2A6 is on record as “not an inhibitor”. For the same compound, on CYP2C19, the CYP2C19 inhibition result is recorded as “is an inhibitor”. Also, the safety and tolerability result in [1] (Part 1, single ascending oral doses 5 mg to 25 mg) was “safe and generally well tolerated”. In data set [1] (Part 1, single oral doses 5 mg to 25 mg), the “grade 3 or 4 adverse events” value was “no grade 3 or 4 adverse events”. Moreover, the “new HO bone formation” value with HO bone formation is recorded as “significant reduction in new HO bone formation”. In data set [2], this compound registered a plasma protein binding of no less than 99.9%. Further, the CYP2E1 inhibition result on CYP2E1 was “not an inhibitor”. Also, the IC50 on ALK2(R206H) was less than 100 nM. Besides, in the data set on CYP3A, the CYP3A inhibition entry is reported as “not an inhibitor”. The CYP1A2 inhibition entry on cytochrome P450 (CYP)1A2 is “not an inhibitor”.
